Source: patent publication US20260078119A1, “DEGRADER COMPOUNDS AND USES THEREOF” (Bristol-Myers Squibb Company, priority 2024, published 2026)
pEC50: −log10 of the molar value.

How the values were obtained:
FAK = target: T1, FAK (Homo sapiens, UniProt Q05397); assay: FAK-HiBiT Degradation Assay; assay type: cell-based; details: for DC50: JHH-4-FAK-HiBiT clone d01 cells, two hours incubation, 10-point dose response, 3-fold dilution starting at 1 μM, Nano-Glo HiBiT luminescence, read-out: FAK HiBiT EC50; for FAK HiBiT Ymin: lower limit of the four parameter fit (value A), Ymax derived using DMSO control, JHH-4-FAK-HiBiT cells, two hours
T1 construct: homozygous knock-in of a HiBiT tag (Promega Corporation, Madison, WI) to the C-terminus of the FAK gene in its natural genomic locus; endogenous in cells; host or cells: JHH-4-FAK-HiBiT clone d01 (CRISPR-Cas9 knock-in at the endogenous locus)
Method in brief: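 JHH-4 cells with homozygous CRISPR knock-in of C-terminal HiBiT on endogenous FAK, treated 2 h at 37 °C with compounds in 10-point 3-fold series from 1 μM. HiBiT lytic luminescence read; EC50 from four-parameter logistic fit, Ymax set by DMSO control, Ymin as lower fit limit.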

CAL-51 cells = assay: CAL-51 Cell Proliferation Assay; assay type: cell-based; details: for pEC50: Homo sapiens, 120 hours incubation, 10-point dose response, 4-fold dilutions starting at 10 μM, Cell-Titer-Glo, read-out: CAL-51 Prolif EC50; for CAL-51 Prolif Ymin: minimal percent of DMSO control observed in the concentrations tested (Ymin-obs), 120 hours
Method in brief: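 Cells seeded at 350/well in RPMI complete medium onto 10-point, 4-fold compound dilutions from 10 μM (0.1% DMSO), in duplicate, and grown 120 h at 37 °C. CellTiter-Glo luminescence, blank-subtracted and normalised to DMSO, was fitted with a four-parameter logistic to give EC50; Ymin-obs is the lowest observed percent of DMSO control.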

T1 sequence (Q05397 whole entry): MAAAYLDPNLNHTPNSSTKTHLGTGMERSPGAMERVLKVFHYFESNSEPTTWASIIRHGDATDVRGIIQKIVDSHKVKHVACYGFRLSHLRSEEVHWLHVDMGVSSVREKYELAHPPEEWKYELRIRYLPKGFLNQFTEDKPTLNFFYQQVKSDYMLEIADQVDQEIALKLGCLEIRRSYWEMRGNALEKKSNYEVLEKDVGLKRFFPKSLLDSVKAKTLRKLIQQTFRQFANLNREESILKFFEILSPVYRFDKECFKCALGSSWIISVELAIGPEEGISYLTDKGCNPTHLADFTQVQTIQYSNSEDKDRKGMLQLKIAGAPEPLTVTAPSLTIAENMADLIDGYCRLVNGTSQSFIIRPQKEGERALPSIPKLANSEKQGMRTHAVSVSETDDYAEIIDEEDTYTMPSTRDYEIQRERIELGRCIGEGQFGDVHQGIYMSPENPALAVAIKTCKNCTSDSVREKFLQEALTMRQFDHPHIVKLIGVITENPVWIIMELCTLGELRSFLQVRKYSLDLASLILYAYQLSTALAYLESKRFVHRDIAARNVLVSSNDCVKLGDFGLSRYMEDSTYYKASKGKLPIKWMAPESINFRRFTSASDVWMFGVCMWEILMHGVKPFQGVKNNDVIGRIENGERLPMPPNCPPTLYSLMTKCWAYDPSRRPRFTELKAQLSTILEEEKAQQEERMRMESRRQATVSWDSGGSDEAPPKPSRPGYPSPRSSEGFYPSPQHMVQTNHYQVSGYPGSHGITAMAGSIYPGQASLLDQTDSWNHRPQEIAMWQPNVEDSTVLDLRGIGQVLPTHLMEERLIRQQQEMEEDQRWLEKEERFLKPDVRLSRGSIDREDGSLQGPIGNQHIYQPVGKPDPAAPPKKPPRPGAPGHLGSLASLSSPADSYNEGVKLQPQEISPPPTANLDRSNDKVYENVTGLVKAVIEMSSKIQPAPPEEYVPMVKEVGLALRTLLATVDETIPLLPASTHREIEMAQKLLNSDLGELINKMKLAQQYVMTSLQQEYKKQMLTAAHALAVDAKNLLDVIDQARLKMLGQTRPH

| Compound | DC50 (FAK) [nM] | FAK HiBiT Ymin (FAK) | pEC50 (CAL-51 cells) | CAL-51 Prolif Ymin (CAL-51 cells) |
| --- | --- | --- | --- | --- |
| Cc1cc(F)cnc1-c1cc(N2CC(F)C2)nc2c1cnn2Cc1ccc2c(c1)CN([C@H]1CCC(=O)NC1=O)C2=O [Example 144, (S)-3-(5-((4-(5-fluoro-3-methylpyridin-2-yl)-6-(3-fluoroazetidin-1-yl)-1H-pyrazolo[3,4-b]pyridin-1-yl)methyl)-1-oxoisoindolin-2-yl)piperidine-2,6-dione] | 10.1 | 11.17 | 8.15 | 35.43 |
| O=C1CC[C@H](N2Cc3cc(Cn4ncc5c(-c6ncc(C(F)(F)F)cc6Cl)cc(N6CC[C@H](CCO)C6)nc54)ccc3C2=O)C(=O)N1 [Example 145, (S)-3-(5-((4-(3-chloro-5-(trifluoromethyl)pyridin-2-yl)-6-((R)-3-(2-hydroxyethyl)pyrrolidin-1-yl)-1H-pyrazolo[3,4-b]pyridin-1-yl)methyl)-1-oxoisoindolin-2-yl)piperidine-2,6-dione] | 51.9 | 47.34 | 7.13 | 66.44 |
| O=C1CC[C@H](N2Cc3cc(Cn4ncc5c(-c6ncc(C(F)(F)F)cc6Cl)cc(NCCF)nc54)ccc3C2=O)C(=O)N1 [Example 146, (S)-3-(5-((4-(3-chloro-5-(trifluoromethyl)pyridin-2-yl)-6-((2-fluoroethyl)amino)-1H-pyrazolo[3,4-b]pyridin-1-yl)methyl)-1-oxoisoindolin-2-yl)piperidine-2,6-dione] | 13.1 | 22.43 | 8.03 | 57.23 |
